Drawing on PubChem BioAssay AID1845217 (Molecular Pharmacology Branch, DTP, NCI, 2023), this text covers viability, T/C, IC50 and outcome for 13 compounds.

Molecules are shown by their SMILES. Several values for one entry are separate records, joined by “and”; a condition that tells them apart may be missing. Identical values can stand only once. Activity calls are given as the source filed them. How the source made its calls: active means viability on the fitted dose curve at most 10% of control; inactive means the rest.

For the test, the system named is VA-ES-BJ tumor spheroid viability. Kind of test: Anticancer human tumor VA-ES-BJ cell line growth inhibition.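 On IC50: spheroids exposed to compounds for seven days.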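 On viability, T/C: spheroids exposed to compounds for seven days; percent of DMSO vehicle control viability so 100% = untreated growth.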 The following applies: spheroids with HUVEC and MSC; for viability, T/C: stronger effect = lower value. The source says: Multicellular complex tumor spheroid response to DNA repair inhibitors in combination with DNA-damaging drugs
This study explores the anticancer activities of DNA-damaging drugs and inhibitors of DNA damage repair, both as single agents and in combinations. Complex tumor spheroids comprised of malignant cells, endothelial cells and mesenchymal stem cells served as an in vitro model for human solid tumors. This model system incorporates physiologically relevant features and patient-derived or established malignant cell lines with clinically relevant genetic alterations from many tumor types. Twenty-six patient-derived or established malignant cell lines were evaluated representing sarcoma, melanoma, small cell lung cancer (SCLC), non-small cell lung cancer (NSCLC), as well as bladder, ovarian and pancreatic cancers. The concentration ranges selected for each drug and investigational agent were based upon clinically achievable concentrations if the clinical Cmax of the agent was known.
Compounds. The drugs and compounds olaparib (NSC753686), talazoparib (NSC767125), berzosertib (NSC777718), elimusertib (NSC800525), nedisertib (NSC802822), VX-984 (NSC792969), AZD-1390 (NSC803789), temozolomide (NSC362856), topotecan (NSC609699), trabectedin (NSC813783), staurosporine (NSC755774), and gemcitabine (NSC613327) were obtained from the National Cancer Institute (NCI) Developmental Therapeutics Program Chemical Repository. The FDA-approved anticancer drug set is available from the Developmental Therapeutics Program at https://dtp.cancer.gov/organization/dscb/obtaining/available_plates.htm. […] The stock solutions were prepared in dimethyl sulfoxide (DMSO, Sigma-Aldrich, St. Louis, MO, cat. D2650) at 400-fold the tested concentration and stored at -70 degrees C. Prior to their use, the stock solutions were diluted in fresh medium and the final DMSO concentration in the assay was 0.25% (v/v). All drugs and investigational agents were tested over a range starting from a high concentration at or near the clinical Cmax and decreasing in half-log increments. If the clinical Cmax for an agent had not been determined, the highest concentration tested was 10 microM.
Cell Lines. The patient-derived cancer cell (PDC) lines: 156681-154-R-J1-PDC, 283228-195-R-J1-PDC, 287954-098-R-J1-PDC, 292921-168-R-J2-PDC, 349418-098-R-PDC, 425362-245-T-J1-PDC, 556581-035-R-J1-PDC, and BL0293-F563-PDC were received from the NCI Patient-Derived Models Repository (PDMR, https://pdmr.cancer.gov). The established cell lines HS-SY-2 (RRID:CVCL_8719), MPNST, and SYO-1 (RRID:CVCL_7146) were obtained from the Sloan Kettering Institute. The alveolar soft parts sarcoma cell line ASPS-1 (RRID:CVCL_S738) was established at the NCI and grown from internal seed stocks. The following established cell lines were purchased from the American Type Culture Collection (ATCC, Manassas, VA): G-401 (ATCC, cat. CRL-1441, RRID:CVCL_0270), SW982 (ATCC, cat. HTB-93, RRID:CVCL_1734), VA-ES-BJ (ATCC, cat. CRL-2138, RRID:CVCL_1785), NCI-H719 (ATCC, cat. CRL-5837, RRID:CVCL_1582), NCI-H196 (ATCC, cat. CRL-5823, RRID:CVCL_1509), NCI-H841 (ATCC, cat. CRL-5845, RRID:CVCL_1595), NCI-H1618 (ATCC, cat. CRL-5879, RRID:CVCL_1480), NCI-H1876 (ATCC, cat. CRL-5902, RRID:CVCL_1503), DMS 114 (ATCC, cat. CRL-2066; RRID:CVCL_1174), NCI-H211 (ATCC, cat. CRL-5824; RRID:CVCL_1529), and SW 1271 (ATCC, cat. CRL-2177, RRID:CVCL_1716). The small cell lung cancer cell line COR-L88 was purchased from Sigma-Aldrich (cat. 92031917-1VL, RRID:CVCL_1141). The non-small cell lung cancer cell lines NCI-H226 (RRID:CVCL_1544) and NCI-H322M (RRID:CVCL_1557) were established at the NCI and grown from internal seed stocks. Pooled donor human umbilical vein endothelial cells (HUVEC, Lonza, cat. CC-2519) and human mesenchymal stem cells (hMSC, Lonza, cat. PT-2501) were purchased from Lonza (Walkersville, MD).
Cell Culture. All cells were maintained in an incubator at 37 degrees C and 5% CO2 with 95% humidity. […]

Setting [1] is: compound alone, run of 12/02/2019.
Setting [2] is: compound alone, run of 12/12/2019.

In the case of `CC(C)n1c(=O)n(C)c2cnc3cc(F)c(-c4ccc(OCCCN5CCCCC5)nc4)cc3c21`, the viability, T/C (usually the result in the treated group divided by that in the control group, in per cent) is, setting by setting: (compound 0.0316 µM) 77.7% and 93.7% and 97.1%; (compound 0.1 µM) 74.2% and 93.9% and 95.2%; (compound 0.316 µM) 73.1% and 90.5% and 92.7%; (compound 1 µM) 85.2% and 100% and 99%; (compound 3.16 µM) 91.6% and 105% (2×); (compound 10 µM) 59.8% and 65.4% and 71.2%. Under “curve of compound”, the IC50 (usually the point on the concentration scale where inhibition reaches its midpoint) is greater than 10000 nM.

On to `CC1COCCN1c1cc(-c2ccnn2C)c2ccnc(-c3ccn[nH]3)c2n1` (stereo not drawn), for which the viability, T/C was 9.71% and 87.1% and 84.4% (compound 0.0316 µM); 9.14% and 23.2% and 30.3% (compound 0.316 µM); 5.45% and 9.1% and 11% (compound 1 µM); 5.18% and 6.34% and 6.93% (compound 3.16 µM); 4.89% and 6.26% and 6.35% (compound 10 µM). The IC50 (curve of compound) is < 31.6 nM and 110 nM and 153 nM.

With `CC[C@@]1(O)C(=O)OCc2c1cc1n(c2=O)Cc2cc3c(CN(C)C)c(O)ccc3nc2-1`, the viability, T/C is, setting by setting: (compound 0.003 µM) 94% [middle of 10 runs]; (compound 0.0949 µM) 7.65% [middle of 10 runs]; (compound 0.3 µM) 5.65% [middle of 10 runs]. Besides, the IC50 runs as follows: under setting [1], 21.8 nM [middle of 5 runs]; under setting [2], 28.5 nM [middle of 5 runs].

Consider `CNCc1ccc(-c2cc(-c3nc(-c4ccc(S(=O)(=O)C(C)C)cc4)cnc3N)on2)cc1`, for which the viability, T/C (compound 0.00949 µM) is 77.7% and 86.1% and 87.9%; the viability, T/C (compound 0.03 µM) was 77.8% and 85% and 86.1%; the viability, T/C (compound 0.0949 µM) is 76% and 74.3% and 83%; the viability, T/C (compound 0.3 µM) was 48.9% and 63.3% and 41%; the viability, T/C (compound 0.949 µM) was 9.28% and 11.6% and 7.52%; the viability, T/C (compound 3 µM) was 2.21% and 6.18% and 1.41%. For the same compound, the IC50 (curve of compound) is 289 nM and 399 nM and 235 nM.

For the compound `COc1cc(C)[nH]c(=O)c1CN1CCc2c(Cl)cc(C(OC)C3COC3)c(Cl)c2C1=O` (stereo not drawn), the viability, T/C by setting is: (compound 0.0316 µM) 90.1% and 94.4%; (compound 0.1 µM) 60.6% and 79.6% and 86.1%; (compound 0.316 µM) 62.8% and 67% and 69.9%; (compound 1 µM) 50.1% and 56.3% and 63.1%; (compound 3.16 µM) 44.1% and 54.4% and 58.9%; (compound 10 µM) 41.7% and 49.4% and 52.7%. Also, the result (compound 0.0316 µM) was inactive. The IC50 (curve of compound) was 1550 nM and > 10000 nM.

Consider `COc1cc2c(cc1O)CCNC21CSC2c3c(OC(C)=O)c(C)c4c(c3C(COC1=O)N1C(O)C3Cc5cc(C)c(OC)c(O)c5C(C21)N3C)OCO4` (stereo not drawn), for which the viability, T/C runs as follows: (compound 0.000949 µM) 2.96% [middle of 10 runs]; (compound 0.003 µM) 1.18% [middle of 9 runs]. For the same compound, the IC50 under setting [2] was 0.256 nM [middle of 10 runs].

In the case of `COc1ccc([C@@H](O)c2cc(-c3ncnc4cc(N5CCOCC5)ccc34)c(F)cc2Cl)nn1`, the viability, T/C is 99.7% and 97.1% and 92.4% (compound 0.0316 µM); 113% and 95.6% and 88.6% (compound 0.1 µM); 71.4% and 65.5% and 79.8% (compound 0.316 µM); 45.9% and 32.2% and 52% (compound 1 µM); 17.3% and 11.2% and 21.3% (compound 3.16 µM); 10.2% and 6.84% and 8.9% (compound 10 µM). For the same compound, where the note is “curve of compound”, the IC50 was 780 nM and 549 nM and 1080 nM.

On to `Cc1cc(C)c(CNC(=O)c2cc(-c3ccc(CN4CCOCC4)cc3)cc3c2cnn3C2CCCC2)c(=O)[nH]1`, for which the viability, T/C runs as follows: (compound 0.0316 µM) 101% and 98% and 103%; (compound 0.1 µM) 100% and 106% and 101%; (compound 0.316 µM) 98.5% and 97.2% and 99.1%; (compound 1 µM) 103% (2×) and 100%; (compound 3.16 µM) 102% and 107% and 112%; (compound 10 µM) 91.8% and 91.9% and 104%. Moreover, where the note is “curve of compound”, the IC50 is greater than 10000 nM.

For the compound `Cc1sc2c(c1C)C(c1ccc(Cl)cc1)=NC(CC(=O)Nc1ccc(O)cc1)c1nnc(C)n1-2` (stereo not drawn), the viability, T/C by setting is: (compound 0.00949 µM) 72.1% and 86.4% and 77.2%; (compound 0.03 µM) 66.8% and 59.2% and 64.1%; (compound 0.0949 µM) 47.3% and 45% and 46.2%; (compound 0.3 µM) 30.5% and 32.6% and 28.8%; (compound 0.949 µM) 25.7% and 24.2% and 20.7%; (compound 3 µM) 18.6% and 22.5% and 15.8%. The IC50 (curve of compound) is 84.1 nM and 60.9 nM and 73.1 nM.

Consider `Cn1ncnc1[C@H]1c2n[nH]c(=O)c3cc(F)cc(c23)N[C@@H]1c1ccc(F)cc1`, for which the viability, T/C (compound 0.00949 µM) is 82.2% and 101% and 87.7%; the viability, T/C (compound 0.03 µM) was 81.7% and 78.2% and 85.3%; the viability, T/C (compound 0.0949 µM) is 68.5% and 82.6% and 74.7%; the viability, T/C (compound 0.3 µM) was 55.8% and 65.9% and 58.5%; the viability, T/C (compound 0.949 µM) was 33.7% and 41.4% and 36%; the viability, T/C (compound 3 µM) was 7.23% and 7.48% and 6.56%. In addition, the IC50 (curve of compound) is 400 nM and 619 nM and 469 nM.

Take `Cn1nnc2c(C(N)=O)ncn2c1=O`: the viability, T/C by setting is: (compound 1 µM) 104% [middle of 10 runs]; (compound 3.16 µM) 103% [middle of 10 runs]; (compound 10 µM) 107% [middle of 10 runs]; (compound 100 µM) 104% [middle of 10 runs]. In addition, under setting [1], the IC50 is greater than 100000 nM.

Turning to `O=C(c1cc(Cc2n[nH]c(=O)c3ccccc23)ccc1F)N1CCN(C(=O)C2CC2)CC1`, the viability, T/C was 113% and 96.3% and 94.1% (compound 0.0949 µM); 98.4% and 84.9% and 93.2% (compound 0.3 µM); 101% and 89.1% and 92.5% (compound 0.949 µM); 98.7% and 88% and 87% (compound 3 µM); 74.6% and 71.3% and 67.4% (compound 9.49 µM); 67.4% and 52.5% and 47.3% (compound 30 µM). Moreover, the IC50 (curve of compound) was > 30000 nM and 25800 nM.

Consider `[2H]c1nc(C)nc([2H])c1-c1cc(NC[C@@H](C)c2cccc3c(C(=O)NC)ccnc23)ncn1`, for which the viability, T/C was 70.8% and 104% and 89.9% (compound 0.0316 µM); 77.2% and 94.7% and 88.6% (compound 0.1 µM); 80% and 92.6% and 90.8% (compound 0.316 µM); 79.4% and 104% and 99.8% (compound 1 µM); 86.9% and 95.6% and 103% (compound 3.16 µM); 83.2% and 99.6% and 104% (compound 10 µM). For the same compound, the IC50 (curve of compound) was greater than 10000 nM.
